In patent US9668960B2, “Methods useful in studying or modulating skin or hair pigmentation, plant extracts for use in compositions and cosmetic care method” (L V M H RECHERCHE, priority 2008, dated 2017):

How the values were obtained:
[1] = test system: melanosome transfer from melanocytes to matched keratinocytes; assay: Quantitative analysis of gp100-positive melanosome transfer in melanocyte-keratinocyte co-culture; type: cell-based, human; settings: for gp 100+ Spots/KC / % Change of Melanin Transfer vs. Basal: 24 h; for gp 100+ Spots/KC: co-culture F39, L-18 0.001%, L-19 1%, L-20 0.5%, L-21 10 μg/ml, L-22 1%, L-23 0.05 μg/ml, basal 27.3; for % Change of Melanin Transfer vs. Basal: same doses as E10
Method: Quantitative analysis of melanosome transfer: Fully-matched epidermal melanocytes (p4) and epidermal keratinocytes (p2) from 4 normal individuals (i.e., F39; F67; F54; F52) were maintained in 8-well Lab-Tek® chamber slides at a total cell density of 2×10^4 cells/well and in a ratio of 1 melanocyte to 10 normal keratinocytes. The co-culture was maintained for further 24 h before washing 3-times with sterile PBS before incubation with starved medium alone, or L-18 (0.001%), L-19 (1%), L-20 (0.5%), L-21 (10 μg/ml), L-22 (1%) and L-23 (0.05 μg/ml) for 12 and 72 h. Controls included IBMX (100 μM) and niacinamide (10 μM). Cells were then processed for immunofluorescence staining with gp100 to assess melanosome transfer to keratinocytes.
Evaluation of melanosome transfer was performed by counting fluorescent gp100-positive spots within recipient keratinocytes in 5 random microscopic fields per well at 100× magnification (oil-immersion) in 3 independent experiments. To avoid counting melanin granules that may still be associated with melanocytes, we only counted gp100-positive spots within keratinocytes that were not in direct contact with melanocytes.
Gp100 immunostaining provides a powerful tracking method for the global assessment of melanin transfer to keratinocytes, and for the evaluation of melanocyte phenotype modulators (Singh et al., 2008). […] In this assay melanosome transfer from melanocytes to matched keratinocytes under basal (i.e., unstimulated) conditions was determined at an average of 27.3 gp100-positive spots per keratinocyte. However, this was increased almost 4-fold after 24 h stimulation of co-cultures with IBMX to 99.5 gp100-positive spots per keratinocyte. Conversely, niacinamide reduced melanosome transfer by 28% (19.6 gp100-positive spots per keratinocyte; p<0.01; a result that correlates with its clinical use as a lightener of cutaneous pigmentation (Hakozaki et al, 2002; Greatens et al., 2005).
Means are ±SEM of 4 independent experiments with **P<0.01, ***P<0.001.

Myo-X = Myo-X protein expression by Western blotting in normal human melanocytes; type: cell-based; settings: EM (F39), 12 h
Method: Western blot analysis: EMc in a confluent T225 flask were trypsinised and seeded into T25 flask with full medium and allowed to attach overnight. 24 h before treatment the medium was replaced with starved medium for 24 h. Cells were washed 3-times with sterile PBS, and incubated in starved medium alone, or L-18 (0.001%), L-19 (1%), L-20 (0.5%), L-21 (10 μg/ml), L-22 (1%) and L-23 (0.05 μg/ml) for 12 and 72 h. Controls included IBMX (100 μM) and niacinamide (10 μM).
40 μg of total protein from each cell extract was electrophoresed in reducing SDS-8%-PAGE and blotted on PVDF membranes (Millipore Corporation, Bedford, Mass.). […]
After extensive washes the blots were incubated with horseradish peroxidise conjugated secondary antibodies for 2 h. […] The chemiluminescent signal was detected by exposing the blot strips to Kodak XRA X-ray film (Kodak, UK) at various exposure times, followed by development in developing solution (Kodak, UK) until bands appeared, rinsed in tap water, fixed in the fixer (Kodak, UK) until the film turned blue, then rinsed with tap water and allowed to dry. […]
(A) Cell extracts were analyzed by Western blotting using anti-Myo-X and anti-β-actin as a loading control.
(B) Densitometric analysis of Myo-X and actin band intensities expressed as percentage change compared to unstimulated controls. […]

SMILES | gp 100+ Spots/KC ([1]; IBMX 100 μM, niacinamide 10 μM) [Spots/KC] | % Change of Melanin Transfer vs. Basal [1] | melanosome transfer increased, fold versus basal ([1]; 24 h stimulation of co-cultures, IBMX 100 μM) [fold] | increase in Myo-10 expression, fold versus untreated controls (Myo-X; IBMX 100 μM) [fold] | melanosome transfer reduced by ([1]; niacinamide 10 μM, p<0.01) [%] | Myo-X expression reduced by (Myo-X; niacinamide 10 μM) [%]
CC(C)Cn1c(=O)n(C)c(=O)c2[nH]cnc21 [IBMX] | 99.5 | +264% | ~4 | 3 |  | 
NC(=O)c1cccnc1 [niacinamide] | 19.6 | −28% |  |  | 28 | 60
